# Measured values reported in patent US20260191968A1, “PROTAC DEGRADERS OF MLLT1 AND/OR MLLT3” (DARK BLUE THERAPEUTICS LTD, priority 2024, published 2026).
# Tests used:
# MLLT1 = biological target: T1, MLLT1 (Homo sapiens, UniProt Q03111); experiment: MLLT1 degradation assay in MV4-11 cells (JESS chemiluminescent detection), three concentrations, 24 h; type: cell-based; conditions: with respect to DMSO control
# T1 construct: host or cells: MV4-11
# T1 sequence (Q03111 1-559): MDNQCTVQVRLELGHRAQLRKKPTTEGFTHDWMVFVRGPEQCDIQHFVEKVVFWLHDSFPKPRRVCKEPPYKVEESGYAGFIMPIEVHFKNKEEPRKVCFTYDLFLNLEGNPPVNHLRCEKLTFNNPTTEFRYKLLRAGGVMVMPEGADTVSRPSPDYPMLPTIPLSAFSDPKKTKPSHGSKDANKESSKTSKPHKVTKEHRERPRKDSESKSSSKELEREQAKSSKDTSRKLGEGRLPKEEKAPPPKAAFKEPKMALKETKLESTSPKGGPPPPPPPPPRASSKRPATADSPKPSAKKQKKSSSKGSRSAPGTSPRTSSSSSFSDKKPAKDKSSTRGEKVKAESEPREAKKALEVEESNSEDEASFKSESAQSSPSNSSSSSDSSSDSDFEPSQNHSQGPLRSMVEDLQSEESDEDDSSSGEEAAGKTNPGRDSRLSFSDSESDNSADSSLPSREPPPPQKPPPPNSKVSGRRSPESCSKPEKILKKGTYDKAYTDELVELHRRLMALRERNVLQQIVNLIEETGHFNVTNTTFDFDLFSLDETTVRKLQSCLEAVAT
# In short: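 Read-out is % MLLT1 degradation versus DMSO, from band peak areas on a JESS chemiluminescent system. Cells (MV4-11) were exposed for 24 h at 37° C to three compound levels, 10, 100 and 1000 nM, in 0.1% DMSO.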
# MV4-11 cells = experiment: MV4-11 cellular proliferative assay, Assay Format B (CTG 2.0, 168 h); type: cell-based; conditions: Homo sapiens, 168 h (7 days), CTG 2.0, read-out: IC50 (MV4-11 cellular proliferative assay, Assay format B)
# In short: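 Viability read by CellTiter-Glo 2.0 luminescence after 7-day (168 h) compound exposure of MV4-11 cells in IMDM/10% FBS. Ten 3-fold concentrations starting at 1 uM or 100 nM, 0.3% final DMSO; curves normalised to DMSO control, four-parameter fit.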
MLLT1% Degradation @ 0.01 μM (MLLT1),MLLT1% Degradation @ 0.1 μM (MLLT1),MLLT1% Degradation @ 1 μM (MLLT1),IC50 (MV4-11 cells) [nM],Structure (SMILES)
A (Category A: A ≥ 75% degradation),A (Category A: A ≥ 75% degradation),A (Category A: A ≥ 75% degradation),≤ 100,"CN1CCC[C@@H]1c1cc2cnc(NC(=O)c3ccc(OCC#Cc4cccc5c4n(C)c(=O)n5C4CCC(=O)NC4=O)cc3)cc2[nH]1 (stereo partly drawn) [Example 66, 4-((3-(1-(2,6-dioxopiperidin-3-yl)-3-methyl-2-oxo-2,3-dihydro-1H-benzo[d]imidazol-4-yl)prop-2-yn-1-yl)oxy)-N-(2-((R)-1-methylpyrrolidin-2-yl)-1H-pyrrolo[3,2-c]pyridin-6-yl)benzamide]"
A (Category A: A ≥ 75% degradation),A (Category A: A ≥ 75% degradation),A (Category A: A ≥ 75% degradation),≤ 100,"CN1CCC[C@@H]1c1cc2cnc(NC(=O)c3ccc(OC4CCN(CC5CCN(c6cccc7c6CN(C6CCC(=O)NC6=O)C7=O)CC5)CC4)nc3)cc2[nH]1 (stereo partly drawn) [Example 125, 6-((1-((1-(2-(2,6-dioxopiperidin-3-yl)-1-oxoisoindolin-4-yl)piperidin-4-yl)methyl)piperidin-4-yl)oxy)-N-(2-((R)-1-methylpyrrolidin-2-yl)-1H-pyrrolo[3,2-c]pyridin-6-yl)nicotinamide]"
A (Category A: A ≥ 75% degradation),A (Category A: A ≥ 75% degradation),A (Category A: A ≥ 75% degradation),≤ 100,"CN1CCC[C@@H]1c1cc2cnc(NC(=O)c3ccc(OCCN4CCC5(CC4)CCN(c4cccc6c4CN(C4CCC(=O)NC4=O)C6=O)CC5)cc3)cc2[nH]1 (stereo partly drawn) [Example 165, 4-(2-(9-(2-(2,6-dioxopiperidin-3-yl)-1-oxoisoindolin-4-yl)-3,9-diazaspiro[5.5]undecan-3-yl)ethoxy)-N-(2-((R)-1-methylpyrrolidin-2-yl)-1H-pyrrolo[3,2-c]pyridin-6-yl)benzamide]"
A (Category A: A ≥ 75% degradation),A (Category A: A ≥ 75% degradation),A (Category A: A ≥ 75% degradation),≤ 100,"CN1CCC[C@@H]1c1cc2cnc(NC(=O)c3ccc(-c4cnn(CCCC5CCN(c6cccc7c6C(=O)N(C6CCC(=O)NC6=O)C7=O)CC5)c4)cn3)cc2[nH]1 (stereo partly drawn) [Example 211, 5-(1-(3-(1-(2-(2,6-dioxopiperidin-3-yl)-1,3-dioxoisoindolin-4-yl)piperidin-4-yl)propyl)-1H-pyrazol-4-yl)-N-(2-((R)-1-methylpyrrolidin-2-yl)-1H-pyrrolo[3,2-c]pyridin-6-yl)picolinamide]"
A (Category A: A ≥ 75% degradation),A (Category A: A ≥ 75% degradation),A (Category A: A ≥ 75% degradation),≤ 100,"CN1CCC[C@@H]1c1cc2cnc(NC(=O)c3ccc(CCC4CCN(c5cccc6c5CN(C5CCC(=O)NC5=O)C6=O)CC4)cc3)cc2[nH]1 (stereo partly drawn) [Example 177, 4-(2-(1-(2-(2,6-dioxopiperidin-3-yl)-1-oxoisoindolin-4-yl)piperidin-4-yl)ethyl)-N-(2-((R)-1-methylpyrrolidin-2-yl)-1H-pyrrolo[3,2-c]pyridin-6-yl)benzamide]"
A (Category A: A ≥ 75% degradation),A (Category A: A ≥ 75% degradation),A (Category A: A ≥ 75% degradation),≤ 100,"CN1CCC[C@@H]1c1cc2cnc(NC(=O)c3ccc(CCCC#Cc4cccc5c4CN([C@H]4CCC(=O)NC4=O)C5=O)cc3)cc2[nH]1 (relative stereo) [Example 102, 4-(5-(2-((rel-S)-2,6-dioxopiperidin-3-yl)-1-oxoisoindolin-4-yl)pent-4-yn-1-yl)-N-(2-((R)-1-methylpyrrolidin-2-yl)-1H-pyrrolo[3,2-c]pyridin-6-yl)benzamide]"
A (Category A: A ≥ 75% degradation),A (Category A: A ≥ 75% degradation),A (Category A: A ≥ 75% degradation),≤ 100,"CN1CCC[C@@H]1c1cc2cnc(NC(=O)c3cc(F)c(CCCCC#Cc4cccc5c4CN(C4CCC(=O)NC4=O)C5=O)c(F)c3)cc2[nH]1 (stereo partly drawn) [Example 156, 4-(6-(2-(2,6-dioxopiperidin-3-yl)-1-oxoisoindolin-4-yl)hex-5-yn-1-yl)-3,5-difluoro-N-(2-((R)-1-methylpyrrolidin-2-yl)-1H-pyrrolo[3,2-c]pyridin-6-yl)benzamide]"
A (Category A: A ≥ 75% degradation),A (Category A: A ≥ 75% degradation),A (Category A: A ≥ 75% degradation),≤ 100,"CN1CCC[C@@H]1c1cc2cnc(NC(=O)c3ccc(N4CCC(c5ccc(-c6cccc7c6CN(C6CCC(=O)NC6=O)C7=O)cc5)CC4)nc3)cc2[nH]1 (stereo partly drawn) [Example 67, 6-(4-(4-(2-(2,6-dioxopiperidin-3-yl)-1-oxoisoindolin-4-yl)phenyl)piperidin-1-yl)-N-(2-((R)-1-methylpyrrolidin-2-yl)-1H-pyrrolo[3,2-c]pyridin-6-yl)nicotinamide]"
A (Category A: A ≥ 75% degradation),A (Category A: A ≥ 75% degradation),A (Category A: A ≥ 75% degradation),≤ 100,"CN1CCC[C@@H]1c1cc2cnc(NC(=O)c3ccc(OCCC4CCN(c5cccc6c5CN(C5CCC(=O)NC5=O)C6=O)CC4)c(F)c3)cc2[nH]1 (stereo partly drawn) [Example 206, 4-(2-(1-(2-(2,6-dioxopiperidin-3-yl)-1-oxoisoindolin-4-yl)piperidin-4-yl)ethoxy)-3-fluoro-N-(2-((R)-1-methylpyrrolidin-2-yl)-1H-pyrrolo[3,2-c]pyridin-6-yl)benzamide]"

Structure (SMILES),MLLT1% Degradation @ 0.01 μM (MLLT1),MLLT1% Degradation @ 0.1 μM (MLLT1),MLLT1% Degradation @ 1 μM (MLLT1),IC50 (MV4-11 cells) [nM]
"CN1CCC[C@@H]1c1cc2cnc(NC(=O)c3ccc(N4CCN(CC5CCN(c6cccc7c6CN(C6CCC(=O)NC6=O)C7=O)CC5)CC4)nc3)cc2[nH]1 (stereo partly drawn) [Example 169, 6-(4-((1-(2-(2,6-dioxopiperidin-3-yl)-1-oxoisoindolin-4-yl)piperidin-4-yl)methyl)piperazin-1-yl)-N-(2-((R)-1-methylpyrrolidin-2-yl)-1H-pyrrolo[3,2-c]pyridin-6-yl)nicotinamide]",B (Category B: 50% ≤ B < 75% degradation),A (Category A: A ≥ 75% degradation),A (Category A: A ≥ 75% degradation),≤ 100
"CN1CCC[C@@H]1c1cc2cnc(NC(=O)c3cnc(N4CCC(C#Cc5cccc6c5CN(C5CCC(=O)NC5=O)C6=O)CC4)nc3)cc2[nH]1 (stereo partly drawn) [Example 65, 2-(4-((2-(2,6-dioxopiperidin-3-yl)-1-oxoisoindolin-4-yl)ethynyl)piperidin-1-yl)-N-(2-((R)-1-methylpyrrolidin-2-yl)-1H-pyrrolo[3,2-c]pyridin-6-yl)pyrimidine-5-carboxamide]",B (Category B: 50% ≤ B < 75% degradation),B (Category B: 50% ≤ B < 75% degradation),B (Category B: 50% ≤ B < 75% degradation),≤ 100
"CN1CCC[C@@H]1c1cc2cnc(NC(=O)c3ccc(OC4CN(CC5CCN(c6ccc7c(c6)C(=O)N(C6CCC(=O)NC6=O)C7=O)CC5)C4)cc3)cc2[nH]1 (stereo partly drawn) [Example 157, 4-((1-((1-(2-(2,6-dioxopiperidin-3-yl)-1,3-dioxoisoindolin-5-yl)piperidin-4-yl)methyl)azetidin-3-yl)oxy)-N-(2-((R)-1-methylpyrrolidin-2-yl)-1H-pyrrolo[3,2-c]pyridin-6-yl)benzamide]",B (Category B: 50% ≤ B < 75% degradation),A (Category A: A ≥ 75% degradation),A (Category A: A ≥ 75% degradation),≤ 100
"CN1CCC[C@@H]1c1cc2cnc(NC(=O)c3cccc(C4CCN(c5cccc6c5C(=O)N(C5CCC(=O)NC5=O)C6=O)CC4)c3)cc2[nH]1 (stereo partly drawn) [Example 14, 3-(1-(2-(2,6-dioxopiperidin-3-yl)-1,3-dioxoisoindolin-4-yl)piperidin-4-yl)-N-(2-((R)-1-methylpyrrolidin-2-yl)-1H-pyrrolo[3,2-c]pyridin-6-yl)benzamide]",B (Category B: 50% ≤ B < 75% degradation),A (Category A: A ≥ 75% degradation),A (Category A: A ≥ 75% degradation),≤ 100
